In experiment [1] the target is T1, recombinant human cannabinoid 1 receptor (CB1) (Homo sapiens, UniProt P21554).
T1 construct: expressed in transfected cells; membranes prepared
In words: [35S]GTPγS binding assay, antagonism against WIN 55,212-2. Format: biochemical. The settings on record: compound at 1 μM against WIN 55,212-2 dose response, CHO-hCB1 membranes, 100% = effect of internal standard CB1-antagonist. On the procedure:
Chinese hamster ovary (CHO) cells stably expressing recombinant human cannabinoid 1 receptor (CB1) were cultured in nutrient mixture Ham's F 12 supplemented with 10% heat-inactivated fetal bovine serum, 2 mM L-glutamine, 50 U/ml penicillin, 50 U/ml streptomycin and 0.5 mg/ml geneticin. In order to obtain cells, culture flasks were washed twice with phosphate buffered saline and scraped. Then, cells were collected by centrifugation (200×g, 10 min) and stored dry at −80° C. Cells were homogenized in ice-cold 20 mM HEPES, 10 mM EDTA (pH 7.5) and centrifuged at 40,000×g for 15 min at 4° C. The pellet was resuspended in 20 mM HEPES, 0.1 mM EDTA (pH 7.5) and centrifuged for 15 min at 4° C. The final pellet was resuspended in 20 mM HEPES, 0.1 mM EDTA (pH 7.5), and divided in aliquots and stored at −80° C. until use.
The reaction was performed in 96-well plates. Membranes (15 µg protein/well) were incubated for 60 min at 30° C. in buffer (50 mM HEPES, 100 mM KCl, 5 mM MgCl2, 1 mM EDTA, 0.1% wt/vol bovine serum albumin, 5 μM GDP, saponin (10 μg/ml), 0.5 nM [^35S]GTPγS, pH 7.4) with compound at 1 μM final concentration in either the absence or presence of dose response curve of agonist WIN 55, 212-2 between 3 nM and 3 μM. The incubation was terminated by rapid filtration through Millipore Multiscreen glass fiber FB, and rinsed two-times with ice-cold assay buffer. Filter plates were dried and 30 μl of scintillation liquid was added. Radioactivity was determined using Wallac Microbeta Trilux. Each experiment was performed at least in duplicate. A WIN 55, 212-2 dose-response was systematically performed.
The average of basal [^35S]GTPγS binding was subtracted from all binding data. In order to compare the antagonism results from one screening campaign to another one, the difference between the maximal agonist effect of WIN 55, 212-2 alone, and the maximal antagonism effect due to WIN 55, 212-2 with an internal standard CB1-antagonist was defined as 100%.
(Binding of GTPγS marks nucleotide exchange on a G protein.)

Experiment [2] is described as follows: In vivo testing for antiobesic activity, acute treatment. Particulars: rats, acute oral administration; body weight difference versus control. The protocol: Normally handled rats were habituated to a reversed cycle 12/12 h, and the compound as well as saline was acutely orally administered. After administration the cumulated food intake (g) was measured at 6 h and 23 h. Following that the difference in body weight between control and compound treated animals was measured.

T1 sequence (P21554 whole entry): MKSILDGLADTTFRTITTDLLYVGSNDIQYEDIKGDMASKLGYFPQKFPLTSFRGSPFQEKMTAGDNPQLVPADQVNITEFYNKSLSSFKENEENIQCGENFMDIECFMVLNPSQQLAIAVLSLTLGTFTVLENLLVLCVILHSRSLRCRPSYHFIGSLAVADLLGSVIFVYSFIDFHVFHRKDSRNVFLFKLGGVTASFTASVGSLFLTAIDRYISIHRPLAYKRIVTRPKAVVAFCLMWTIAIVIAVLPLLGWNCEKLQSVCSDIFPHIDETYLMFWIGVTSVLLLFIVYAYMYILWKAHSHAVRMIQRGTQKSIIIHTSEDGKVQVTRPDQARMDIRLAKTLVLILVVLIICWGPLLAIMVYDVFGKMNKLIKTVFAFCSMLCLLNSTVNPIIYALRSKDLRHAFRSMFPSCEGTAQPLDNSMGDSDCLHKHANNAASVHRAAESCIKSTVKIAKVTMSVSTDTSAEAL

With `C[C@H]1C(C(=O)NN2CC3CCCC3C2)=NN(c2ccc(Cl)cc2Cl)[C@H]1c1ccc(Br)cc1.Cl` (relative stereo) [Example 3, cis-5-(4-bromophenyl)-1-(2,4-dichlorophenyl)-N-(hexahydrocyclopenta-[c]pyrrol-2(1H)-yl)-4-methyl-4,5-dihydro-1H-pyrazole-3-carboxamide hydrochloride], the “Antagonism (%)” value in experiment [1] is 99 ± 2%.

With `C[C@H]1C(C(=O)NN2CC3CCCC3C2)=NN(c2ccc(Cl)cc2Cl)[C@H]1c1ccc(F)cc1.Cl` (relative stereo) [Example 5, cis-1-(2,4-dichlorophenyl)-5-(4-fluorophenyl)-N-(hexahydrocyclopenta-[c]pyrrol-2(1H)-yl)-4-methyl-4,5-dihydro-1H-pyrazole-3-carboxamide hydrochloride], the “Antagonism (%)” value in experiment [1] was found to be 108 ± 13%.

In the case of `COc1ccc([C@H]2[C@@H](C)C(C(=O)NN3CC4CCCC4C3)=NN2c2ccc(Cl)cc2Cl)cc1.Cl` (relative stereo) [Example 7, cis-1-(2,4-dichlorophenyl)-N-(hexahydrocyclopenta[c]pyrrol-2(1H)-yl)-5-(4-methoxyphenyl)-4-methyl-4,5-dihydro-1H-pyrazole-3-carboxamide hydrochloride], the “Antagonism (%)” value in experiment [1] came out at 148%.

For `C[C@H]1C(C(=O)NN2CC3CCCC3C2)=NN(c2ccc(Cl)cc2Cl)[C@H]1c1ccc(Cl)cc1.Cl` (single isomer, unassigned) [1 (HCl), cis-5-(4-chlorophenyl)-1-(2,4-dichlorophenyl)-N-(hexahydrocyclopenta-[c]pyrrol-2(1H)-yl)-4-methyl-4,5-dihydro-1H-pyrazole-3-carboxamide hydrochloride], in experiment [1] (hydrochloride), the “Antagonism (%)” value was 102 ± 7%.

As for `C[C@H]1C(C(=O)NN2CC3CCCC3C2)=NN(c2ccc(Cl)cc2Cl)[C@H]1c1ccc(Cl)cc1.Cl` (single isomer, unassigned) [Example 1, cis-5-(4-chlorophenyl)-1-(2,4-dichlorophenyl)-N-(hexahydrocyclopenta-[c]pyrrol-2(1H)-yl)-4-methyl-4,5-dihydro-1H-pyrazole-3-carboxamide hydrochloride], the “Antagonism (%)” value in experiment [1] (hydrochloride) came out at 112 ± 0%. Moreover, the “reduction of body weight” value in experiment [2] is reported as “good activity”.

These data come from patent publication US20090054509A1, “Octahydropentalene-Substituted Pyrazoline Derivatives, Their Prepartion and Use as Medicaments” (LABORATORIOS DEL DR. ESTEVE, S.A., priority 2005, published 2009).
